Data on two molecules can be found in PubChem BioAssay AID2337 (Sanford-Burnham Center for Chemical Genomics, 2010).

What is called IC50 is the concentration needed to halve the response being measured.

This experiment deals with TNFa-induced NF-kB reporter cells, inhibition. As to the kind of experiment: analog potency on TNFa NF-kB signaling – cell-based, revised, SAR follow-up (AID 2337).

Take `CC1Sc2ccc(S(=O)(=O)N3CCC(C(=O)Nc4ccc(Cl)cc4)CC3)cc2NC1=O` (configuration not stated): the IC50 is 3.15 µM.

In the case of `O=C(Nc1nc2c(F)cc(F)cc2s1)c1ccc([N+](=O)[O-])o1`, the half-maximal inhibitory concentration (IC50) was 19.7 µM.
